{"source": "patent US20210023065A1", "about": "“AMPHIPHILIC THIOL COMPOUNDS AND USES THEREOF” (THE REGENTS OF THE UNIVERSITY OF CALIFORNIA, priority 2018, published 2021)", "system": "AKT1 (pS473)", "test": "Detection of AKT1 phosphorylation in T24 cells (western blot)", "type": "cell-based, human", "conditions": "T24 cells (oncogenic HRas mutation), 1.25 μmol/10^7 cells, 1 h", "protocol": "T24 cells were grown to confluency in 6 cm plates. Stock solutions of compounds were prepared in DMSO as before and diluted to the final indicated concentration in 2 mL of OptiMEM media before adding to cells. Cells were incubated at 37° C. for 1 h and then media removed and 1.5 mL of HBSS added to each plate. Cells were detached using a cell scraper, pelleted by centrifugation at 1,000 rcf for 5 min and the pellet processed using MPER™ Mammalian Protein Extraction Reagent (ThermoFisher) with the addition of Halt Protease Inhibitor Cocktail (ThermoFisher) and 1 mM sodium orthovanadate. Samples were resolved by electrophoresis using 4-20% SDS-polyacrylamide gels (Bio-Rad) under denaturing and reducing conditions. Proteins were then electrotransferred to a PVDF membrane (Bio-Rad). The membrane was blocked with 3% BSA and then subjected to immunoblot analysis using AKT/MAPK Signaling Pathway Antibody Cocktail (ab151279) (Abcam) and secondary goat anti-rabbit IgG-HRP (sc-2030) (Santa Cruz Biotechnology). Chemiluminescent detection was performed by using SuperSignal West Pico PLUS chemiluminescent substrate (ThermoFisher) according to the manufacturer's instructions.\nAssays were performed in 3 biological replicates. Western blots were analyzed using ImageJl. The intensity of the protein band in each condition was normalized to the intensity of the corresponding loading control (Rab11). […]"}
{"compound": "CCCCCCCCNC(=O)[C@@H](N)CS", "note": "[compound 1, H2N-L-Cys-Oct]", "values": [{"measurement": "AKT1 phosphorylation", "value": "near complete abrogation"}]}
